In patent US20250145633A1, “SUBSTITUTED FURANOPYRIMIDINE COMPOUNDS AS PDE1 INHIBITORS” (Dart NeuroScience, LLC, priority 2017, published 2025):

Biological target: human PDE1B enzyme (Homo sapiens (Human), UniProt Q01064)
Assay: IMAP TR-FRET PDE1B enzymatic assay
Type: biochemical
Conditions: negative log of half-maximal molar inhibitory concentration, 200 nM FAM-cAMP, values given as bins; for IC50: read-out: PDE1b (pIC50) (converted)
Procedure, shortened: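 Full-length GST-tagged human PDE1B (250 pg/well) in IMAP BSA buffer with 10 U/ml calmodulin and 2.5 mM CaCl2; compound pre-incubated 5 min at room temperature, then 200 nM (final) FAM-cAMP for 30 min. IMAP binding reagent/Tb added, 1 h; TR-FRET 520/490 ratio read. IC50 from sigmoidal dose-response fit.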

SMILES | IC50 [nM] | PDE1b (pIC50)
COc1ccc(CNC(=O)c2c(C)oc3ncnc(NC4(C)CC4)c23)nc1F [Example 678, N-[(6-Fluoro-5-methoxypyridin-2-yl)methyl]-6-methyl-4-[(1-methylcyclopropyl)amino]furo[2,3-d]pyrimidine-5-carboxamide] | 10 to 100 | –
Cc1ncc(CNC(=O)c2c(C)oc3ncnc(NC4(C)CC4)c23)cn1 [Example 679, 6-Methyl-4-[(1-methylcyclopropyl)amino]-N-[(2-methylpyrimidin-5-yl)methyl]furo[2,3-d]pyrimidine-5-carboxamide] | 10 to 100 | –
Cc1oc2ncnc(NC3(C)CC3)c2c1C(=O)NCc1nccc(C(F)(F)F)n1 [Example 680, 6-Methyl-4-[(1-methylcyclopropyl)amino]-N-{[4-(trifluoromethyl)pyrimidin-2-yl]methyl}furo[2,3-d]pyrimidine-5-carboxamide] | 10 to 100 | –
Cc1oc2ncnc(NC3(C)CC3)c2c1C(=O)N1Cc2nc(C3CC3)[nH]c(=O)c2C1 [Example 681, 2-Cyclopropyl-6-{6-methyl-4-[(1-methylcyclopropyl)amino]furo[2,3-d]pyrimidine-5-carbonyl}-3H,4H,5H,6H,7H-pyrrolo[3,4-d]pyrimidin-4-one] | 100 to 1000 | –
Cc1oc2ncnc(NC3(C)CC3)c2c1C(=O)N1Cc2nc(C(C)C)[nH]c(=O)c2C1 [Example 682, 6-{6-Methyl-4-[(1-methylcyclopropyl)amino]furo[2,3-d]pyrimidine-5-carbonyl}-2-(propan-2-yl)-3H,4H,5H,6H,7H-pyrrolo[3,4-d]pyrimidin-4-one] | 100 to 1000 | –
Cc1oc2ncnc(NC3(C)CC3)c2c1C(=O)N1CCn2nccc2C1 [Example 683, 6-Methyl-N-(1-methylcyclopropyl)-5-{4H,5H,6H,7H-pyrazolo[1,5-a]pyrazine-5-carbonyl}furo[2,3-d]pyrimidin-4-amine] | 10 to 100 | –
Cc1oc2ncnc(NC3(C)CC3)c2c1C(=O)N1CCn2c(cnc2C2CC2)C1 [Example 684, 5-{3-Cyclopropyl-5H,6H,7H,8H-imidazo[1,5-a]pyrazine-7-carbonyl}-6-methyl-N-(1-methylcyclopropyl)furo[2,3-d]pyrimidin-4-amine] | 100 to 1000 | –
COc1cc(CN(C)C(=O)c2c(C)oc3ncnc(NC4(C)CC4)c23)ncn1 [Example 685, N-[(6-Methoxypyrimidin-4-yl)methyl]-N,6-dimethyl-4-[(1-methylcyclopropyl)amino]furo[2,3-d]pyrimidine-5-carboxamide] | 100 to 1000 | –
Cc1oc2ncnc(NC3(C)CC3)c2c1C(=O)NCc1cc(C2CC2)ncn1 [Example 686, N-[(6-Cyclopropylpyrimidin-4-yl)methyl]-6-methyl-4-[(1-methylcyclopropyl)amino]furo[2,3-d]pyrimidine-5-carboxamide] | – | >8
COc1nc(C2CC2)nc2c1CN(C(=O)c1c(C)oc3ncnc(NC4(C)CC4)c13)C2 [Example 687, 5-{2-Cyclopropyl-4-methoxy-5H,6H,7H-pyrrolo[3,4-d]pyrimidine-6-carbonyl}-6-methyl-N-(1-methylcyclopropyl)furo[2,3-d]pyrimidin-4-amine] | 10 to 100 | –
COc1nc(C(C)C)nc2c1CN(C(=O)c1c(C)oc3ncnc(NC4(C)CC4)c13)C2 [Example 688, 5-[4-Methoxy-2-(propan-2-yl)-5H,6H,7H-pyrrolo[3,4-d]pyrimidine-6-carbonyl]-6-methyl-N-(1-methylcyclopropyl)furo[2,3-d]pyrimidin-4-amine] | 10 to 100 | –
Cc1oc2ncnc(NC3(C)CC3)c2c1C(=O)NCc1ccnc(C2CC2)n1 [Example 689, N-[(2-Cyclopropylpyrimidin-4-yl)methyl]-6-methyl-4-[(1-methylcyclopropyl)amino]furo[2,3-d]pyrimidine-5-carboxamide] | 10 to 100 | –
Cc1oc2ncnc(NC3(C)CC3)c2c1C(=O)N1CCc2cnc(Cl)nc2C1 [Example 690, 5-{2-Chloro-5H,6H,7H,8H-pyrido[3,4-d]pyrimidine-7-carbonyl}-6-methyl-N-(1-methylcyclopropyl)furo[2,3-d]pyrimidin-4-amine] | 10 to 100 | –
Cc1oc2ncnc(NC3(C)CC3)c2c1C(=O)NCc1ncc(C(C)(C)C)o1 [Example 691, N-[(5-tert-Butyl-1,3-oxazol-2-yl)methyl]-6-methyl-4-[(1-methylcyclopropyl)amino]furo[2,3-d]pyrimidine-5-carboxamide] | 10 to 100 | –
Cc1oc2ncnc(NC3(C)CC3)c2c1C(=O)N(C)Cc1ncco1 [Example 692, N,6-Dimethyl-4-[(1-methylcyclopropyl)amino]-N-(1,3-oxazol-2-ylmethyl)furo[2,3-d]pyrimidine-5-carboxamide] | 100 to 1000 | –
Cc1oc2ncnc(NC3(C)CC3)c2c1C(=O)NCCc1cnc(C2CC2)nc1 [Example 693, N-[2-(2-Cyclopropylpyrimidin-5-yl)ethyl]-6-methyl-4-[(1-methylcyclopropyl)amino]furo[2,3-d]pyrimidine-5-carboxamide] | 100 to 1000 | –

SMILES | IC50 [nM] | PDE1b (pIC50)
Cc1oc2ncnc(NC3(C)CC3)c2c1C(=O)N1CCn2c(C3CC3)nc(Cl)c2C1 [Example 694, 5-{1-Chloro-3-cyclopropyl-5H,6H,7H,8H-imidazo[1,5-a]pyrazine-7-carbonyl}-6-methyl-N-(1-methylcyclopropyl)furo[2,3-d]pyrimidin-4-amine] | 10 to 100 | –
Cc1oc2ncnc(NC3(C)CC3)c2c1C(=O)N1CCn2c(C3CC3)nc(I)c2C1 [Example 695, 5-{3-Cyclopropyl-1-iodo-5H,6H,7H,8H-imidazo[1,5-a]pyrazine-7-carbonyl}-6-methyl-N-(1-methylcyclopropyl)furo[2,3-d]pyrimidin-4-amine] | 10 to 100 | –
Cc1oc2ncnc(NC3(C)CC3)c2c1C(=O)NCc1ncc(C(F)(F)F)cn1 [Example 696, 6-Methyl-4-[(1-methylcyclopropyl)amino]-N-{[5-(trifluoromethyl)pyrimidin-2-yl]methyl}furo[2,3-d]pyrimidine-5-carboxamide] | 10 to 100 | –
Cc1cccc(CNC(=O)c2c(C)oc3ncnc(NC4(C)CC4)c23)n1 [Example 697, 6-Methyl-4-[(1-methylcyclopropyl)amino]-N-[(6-methylpyridin-2-yl)methyl]furo[2,3-d]pyrimidine-5-carboxamide] | 10 to 100 | –
COc1ncc(CNC(=O)c2c(C)oc3ncnc(NC4(C)CC4)c23)cn1 [Example 698, N-[(2-Methoxypyrimidin-5-yl)methyl]-6-methyl-4-[(1-methylcyclopropyl)amino]furo[2,3-d]pyrimidine-5-carboxamide] | – | >8
COc1ncc2c(n1)CN(C(=O)c1c(C)oc3ncnc(NC4(C)CC4)c13)CC2 [Example 699, 5-{2-Methoxy-5H,6H,7H,8H-pyrido[3,4-d]pyrimidine-7-carbonyl}-6-methyl-N-(1-methylcyclopropyl)furo[2,3-d]pyrimidin-4-amine] | 100 to 1000 | –
Cc1csc(CN(C)C(=O)c2c(C)oc3ncnc(NC4(C)CC4)c23)n1 [Example 700, N,6-Dimethyl-N-[(4-methyl-1,3-thiazol-2-yl)methyl]-4-[(1-methylcyclopropyl)amino]furo[2,3-d]pyrimidine-5-carboxamide] | 10 to 100 | –
Cc1oc2ncnc(NC3(C)CC3)c2c1C(=O)N(C)Cc1nccs1 [Example 701, N,6-Dimethyl-4-[(1-methylcyclopropyl)amino]-N-(1,3-thiazol-2-ylmethyl)furo[2,3-d]pyrimidine-5-carboxamide] | 100 to 1000 | –
Cc1cnc(CN(C)C(=O)c2c(C)oc3ncnc(NC4(C)CC4)c23)s1 [Example 702, N,6-Dimethyl-N-[(5-methyl-1,3-thiazol-2-yl)methyl]-4-[(1-methylcyclopropyl)amino]furo[2,3-d]pyrimidine-5-carboxamide] | 10 to 100 | –
Cc1csc(CNC(=O)c2c(C)oc3ncnc(NC4(C)CC4)c23)n1 [Example 703, 6-Methyl-N-[(4-methyl-1,3-thiazol-2-yl)methyl]-4-[(1-methylcyclopropyl)amino]furo[2,3-d]pyrimidine-5-carboxamide] | 10 to 100 | –
Cc1oc2ncnc(NC3(C)CC3)c2c1C(=O)NCc1nc(C(F)(F)F)cs1 [Example 704, 6-Methyl-4-[(1-methylcyclopropyl)amino]-N-{[4-(trifluoromethyl)-1,3-thiazol-2-yl]methyl}furo[2,3-d]pyrimidine-5-carboxamide] | – | >8
Cc1cnc(CNC(=O)c2c(C)oc3ncnc(NC4(C)CC4)c23)nc1 [Example 705, 6-Methyl-4-[(1-methylcyclopropyl)amino]-N-[(5-methylpyrimidin-2-yl)methyl]furo[2,3-d]pyrimidine-5-carboxamide] | – | >8
Cc1oc2ncnc(NC3(C)CC3)c2c1C(=O)NCc1ncc(C(F)F)cn1 [Example 706, N-{[5-(Difluoromethyl)pyrimidin-2-yl]methyl}-6-methyl-4-[(1-methylcyclopropyl)amino]furo[2,3-d]pyrimidine-5-carboxamide] | 10 to 100 | –
Cc1oc2ncnc(NC3(C)CC3)c2c1C(=O)NCc1nccc(C(F)F)n1 [Example 707, N-{[4-(Difluoromethyl)pyrimidin-2-yl]methyl}-6-methyl-4-[(1-methylcyclopropyl)amino]furo[2,3-d]pyrimidine-5-carboxamide] | 10 to 100 | –
Cc1oc2ncnc(NC3(C)CC3)c2c1C(=O)NCc1cnc(C2CC2)nc1 [Example 708, N-[(2-Cyclopropylpyrimidin-5-yl)methyl]-6-methyl-4-[(1-methylcyclopropyl)amino]furo[2,3-d]pyrimidine-5-carboxamide] | – | >8
COc1nc(C)nc2c1CN(C(=O)c1c(C)oc3ncnc(NC4(C)CC4)c13)C2 [Example 709, 5-{4-Methoxy-2-methyl-5H,6H,7H-pyrrolo[3,4-d]pyrimidine-6-carbonyl}-6-methyl-N-(1-methylcyclopropyl)furo[2,3-d]pyrimidin-4-amine] | 100 to 1000 | –
